Laboratory results as given in publication PMC12715762, “Discovery of VU6052254: A Novel, Potent M1 Positive Allosteric Modulator” (ACS Chemical Neuroscience, 2025).
pIC50: −log10 of the molar value.

Legend:
[1] = brain homogenate binding (rat); format: in vitro ADME; conditions: pH 7.4, rat (r), read-out: fu,brain
Protocol: Plasma protein binding and Brain homogenate binding: Determination of fraction unbound (f u) in plasma was conducted in vitro via equilibrium dialysis using HTDialysis (HTD) membrane plates. The top half of the plate was filled with 100 uL of Dubelco’s Phosphate Buffered Saline, pH 7.4 (DPBS). Compounds were diluted into plasma from each species (5 µM final concentration), which was aliquoted in triplicate to the ‘bottom half’ of the prepared HTD plate wells. The HTD plate was sealed and incubated for 6 hours at 37 °C. Following incubation, each well (both top and bottom halves) were transferred (20 µL) to the corresponding wells of a 96-shallow-well (V-bottom) plate. […]
The unbound fraction (f u) was calculated following the equation below, and mean values for each species were calculated from 3 replicates.
A similar approach was used to determine the degree of brain homogenate binding, which employed the same methodology and procedure with the following modifications: 1) a final compound concentration of 1 μM was used, 2) naïve rat brains were homogenized in DPBS (1:3 composition of brain: DPBS, w/w) using a Mini-Bead Beater™ machine in order to obtain brain homogenate, which was then treated in the same manner as the plasma samples in the previously described plasma protein binding assay. Fraction unbound for both plasma and brain samples was determined using Equation 4. […]

CYP 2B6 = CYP 2B6 (Homo sapiens, UniProt P20813); assay: CYP450 inhibition; format: in vitro ADME
Chain of CYP 2B6 (P20813 whole entry): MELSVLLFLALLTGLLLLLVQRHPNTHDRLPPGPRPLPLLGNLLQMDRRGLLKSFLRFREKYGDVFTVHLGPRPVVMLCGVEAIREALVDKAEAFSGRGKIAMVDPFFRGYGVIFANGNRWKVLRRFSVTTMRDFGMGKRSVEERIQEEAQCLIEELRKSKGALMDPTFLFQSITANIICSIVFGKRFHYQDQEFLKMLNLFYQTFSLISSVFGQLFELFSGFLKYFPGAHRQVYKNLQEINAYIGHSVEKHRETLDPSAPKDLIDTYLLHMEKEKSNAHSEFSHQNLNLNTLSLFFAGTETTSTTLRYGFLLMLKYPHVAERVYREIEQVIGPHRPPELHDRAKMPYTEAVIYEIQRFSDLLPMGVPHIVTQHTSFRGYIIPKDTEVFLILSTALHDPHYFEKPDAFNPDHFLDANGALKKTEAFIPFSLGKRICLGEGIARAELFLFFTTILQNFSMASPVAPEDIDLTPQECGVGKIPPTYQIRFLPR

CYP 2C8 = CYP 2C8 (Homo sapiens, UniProt P10632); assay: CYP450 inhibition; format: in vitro ADME
Chain of CYP 2C8 (P10632 whole entry): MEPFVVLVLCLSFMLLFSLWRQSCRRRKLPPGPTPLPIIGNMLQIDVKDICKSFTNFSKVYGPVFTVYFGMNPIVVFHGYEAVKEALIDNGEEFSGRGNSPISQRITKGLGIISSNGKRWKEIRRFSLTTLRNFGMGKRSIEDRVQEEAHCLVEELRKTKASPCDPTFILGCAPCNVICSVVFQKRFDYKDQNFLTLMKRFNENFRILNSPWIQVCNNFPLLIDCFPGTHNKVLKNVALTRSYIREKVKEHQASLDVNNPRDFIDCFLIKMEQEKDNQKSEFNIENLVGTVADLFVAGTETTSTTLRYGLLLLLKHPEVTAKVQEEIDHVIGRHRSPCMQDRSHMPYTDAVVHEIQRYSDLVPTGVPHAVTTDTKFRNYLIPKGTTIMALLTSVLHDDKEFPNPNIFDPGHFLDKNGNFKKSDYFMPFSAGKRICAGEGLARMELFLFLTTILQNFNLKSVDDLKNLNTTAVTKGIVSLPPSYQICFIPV

[2] = IV/PO pharmacokinetics (rat); format: in vivo; conditions: Rat (SD)
[3] = IV/PO pharmacokinetics (dog); format: in vivo; conditions: Dog (beagle)
[4] = IV/PO pharmacokinetics (NHP); format: in vivo; conditions: NHP (cyno)
4 strain = assay: AMES assay (4 strain, with and without S9); format: cell-based
3A4 [5] = target: 3A4 (Homo sapiens, UniProt P08684); assay: CYP450 phenotyping, recombinant enzymes; format: in vitro ADME; conditions: 3A4, panel of eight recombinant enzymes
3A4 [6] = assay: CYP450 induction in human hepatocytes (three donors); format: cell-based
Adrenergic α1A = Adrenergic α1A (Homo sapiens, UniProt P35348); assay: Eurofins radioligand binding
Chain of Adrenergic α1A (P35348 whole entry): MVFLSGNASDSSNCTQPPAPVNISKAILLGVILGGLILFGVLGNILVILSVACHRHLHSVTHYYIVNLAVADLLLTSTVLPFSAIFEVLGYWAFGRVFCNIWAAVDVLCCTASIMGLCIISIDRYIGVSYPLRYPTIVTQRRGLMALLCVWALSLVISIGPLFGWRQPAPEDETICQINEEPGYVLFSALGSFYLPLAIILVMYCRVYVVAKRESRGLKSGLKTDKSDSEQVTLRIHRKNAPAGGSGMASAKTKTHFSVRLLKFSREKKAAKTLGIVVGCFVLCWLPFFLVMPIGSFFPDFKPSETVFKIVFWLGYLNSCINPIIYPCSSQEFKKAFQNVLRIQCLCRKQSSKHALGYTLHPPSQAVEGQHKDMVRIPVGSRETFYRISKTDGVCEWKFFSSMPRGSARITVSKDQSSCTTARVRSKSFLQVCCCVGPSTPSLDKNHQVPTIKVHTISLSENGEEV

Adrenergic α2A = target: T1, Adrenergic α2A (Homo sapiens, UniProt P08913); assay: Eurofins radioligand binding
T1 construct: purchased Eurofins (contract screen, Study TW04-0011004)
T1 sequence (P08913 whole entry): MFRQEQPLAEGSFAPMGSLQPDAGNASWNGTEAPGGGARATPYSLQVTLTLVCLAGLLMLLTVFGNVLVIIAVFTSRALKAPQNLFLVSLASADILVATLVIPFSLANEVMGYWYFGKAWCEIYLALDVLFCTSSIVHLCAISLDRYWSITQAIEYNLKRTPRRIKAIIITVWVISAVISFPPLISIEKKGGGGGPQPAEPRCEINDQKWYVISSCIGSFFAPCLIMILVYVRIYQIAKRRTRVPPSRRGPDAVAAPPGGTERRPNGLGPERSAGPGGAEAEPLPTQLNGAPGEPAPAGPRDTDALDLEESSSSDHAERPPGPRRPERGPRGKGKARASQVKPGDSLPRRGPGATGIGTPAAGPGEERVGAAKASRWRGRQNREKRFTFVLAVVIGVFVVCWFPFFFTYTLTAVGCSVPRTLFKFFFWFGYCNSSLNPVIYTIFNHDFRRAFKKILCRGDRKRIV

[7] = system: Calcium Channel L-Type, Benzothiazepine; assay: Eurofins radioligand binding; conditions: Rat
Estrogen ERα = Estrogen ERα (Homo sapiens, UniProt P03372); assay: Eurofins radioligand binding
Chain of Estrogen ERα (P03372 whole entry): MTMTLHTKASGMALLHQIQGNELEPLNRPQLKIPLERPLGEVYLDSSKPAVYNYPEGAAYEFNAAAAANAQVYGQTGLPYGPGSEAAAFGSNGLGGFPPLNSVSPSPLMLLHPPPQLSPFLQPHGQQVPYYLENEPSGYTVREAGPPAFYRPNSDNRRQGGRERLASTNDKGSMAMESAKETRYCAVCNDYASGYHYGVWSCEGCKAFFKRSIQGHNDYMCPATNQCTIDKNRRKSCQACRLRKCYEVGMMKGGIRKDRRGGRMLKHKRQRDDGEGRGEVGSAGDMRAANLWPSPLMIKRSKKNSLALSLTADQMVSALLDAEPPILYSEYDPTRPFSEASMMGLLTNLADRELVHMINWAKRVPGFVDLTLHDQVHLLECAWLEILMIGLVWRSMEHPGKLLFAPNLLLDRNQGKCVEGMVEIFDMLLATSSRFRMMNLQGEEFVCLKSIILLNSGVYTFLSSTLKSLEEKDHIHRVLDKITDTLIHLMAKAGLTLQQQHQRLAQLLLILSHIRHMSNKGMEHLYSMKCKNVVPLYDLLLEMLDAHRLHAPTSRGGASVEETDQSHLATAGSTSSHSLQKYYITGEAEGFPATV

Opiate κ (OP2, KOP) = Opiate κ (OP2, KOP) (Homo sapiens, UniProt P41145); assay: Eurofins radioligand binding
Chain of Opiate κ (OP2, KOP) (P41145 whole entry): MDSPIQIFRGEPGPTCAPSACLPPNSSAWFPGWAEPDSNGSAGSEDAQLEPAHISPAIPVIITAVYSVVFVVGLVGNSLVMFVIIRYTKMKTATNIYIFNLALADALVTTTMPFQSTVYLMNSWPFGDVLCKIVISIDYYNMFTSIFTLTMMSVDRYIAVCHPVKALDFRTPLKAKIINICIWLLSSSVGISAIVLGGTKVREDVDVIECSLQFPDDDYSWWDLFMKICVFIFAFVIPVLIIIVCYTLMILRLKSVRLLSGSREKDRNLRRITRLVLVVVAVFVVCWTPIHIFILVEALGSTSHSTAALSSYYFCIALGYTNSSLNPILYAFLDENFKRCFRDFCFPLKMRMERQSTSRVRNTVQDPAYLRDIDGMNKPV

Opiate μ (OP3, MOP) = Opiate μ (OP3, MOP) (Homo sapiens, UniProt P35372); assay: Eurofins radioligand binding
Phorbol Ester = assay: Eurofins radioligand binding; conditions: Mouse
hERG potassium channel = hERG potassium channel (Homo sapiens, UniProt Q12809); assay: Eurofins radioligand binding
Chain of hERG potassium channel (Q12809 whole entry): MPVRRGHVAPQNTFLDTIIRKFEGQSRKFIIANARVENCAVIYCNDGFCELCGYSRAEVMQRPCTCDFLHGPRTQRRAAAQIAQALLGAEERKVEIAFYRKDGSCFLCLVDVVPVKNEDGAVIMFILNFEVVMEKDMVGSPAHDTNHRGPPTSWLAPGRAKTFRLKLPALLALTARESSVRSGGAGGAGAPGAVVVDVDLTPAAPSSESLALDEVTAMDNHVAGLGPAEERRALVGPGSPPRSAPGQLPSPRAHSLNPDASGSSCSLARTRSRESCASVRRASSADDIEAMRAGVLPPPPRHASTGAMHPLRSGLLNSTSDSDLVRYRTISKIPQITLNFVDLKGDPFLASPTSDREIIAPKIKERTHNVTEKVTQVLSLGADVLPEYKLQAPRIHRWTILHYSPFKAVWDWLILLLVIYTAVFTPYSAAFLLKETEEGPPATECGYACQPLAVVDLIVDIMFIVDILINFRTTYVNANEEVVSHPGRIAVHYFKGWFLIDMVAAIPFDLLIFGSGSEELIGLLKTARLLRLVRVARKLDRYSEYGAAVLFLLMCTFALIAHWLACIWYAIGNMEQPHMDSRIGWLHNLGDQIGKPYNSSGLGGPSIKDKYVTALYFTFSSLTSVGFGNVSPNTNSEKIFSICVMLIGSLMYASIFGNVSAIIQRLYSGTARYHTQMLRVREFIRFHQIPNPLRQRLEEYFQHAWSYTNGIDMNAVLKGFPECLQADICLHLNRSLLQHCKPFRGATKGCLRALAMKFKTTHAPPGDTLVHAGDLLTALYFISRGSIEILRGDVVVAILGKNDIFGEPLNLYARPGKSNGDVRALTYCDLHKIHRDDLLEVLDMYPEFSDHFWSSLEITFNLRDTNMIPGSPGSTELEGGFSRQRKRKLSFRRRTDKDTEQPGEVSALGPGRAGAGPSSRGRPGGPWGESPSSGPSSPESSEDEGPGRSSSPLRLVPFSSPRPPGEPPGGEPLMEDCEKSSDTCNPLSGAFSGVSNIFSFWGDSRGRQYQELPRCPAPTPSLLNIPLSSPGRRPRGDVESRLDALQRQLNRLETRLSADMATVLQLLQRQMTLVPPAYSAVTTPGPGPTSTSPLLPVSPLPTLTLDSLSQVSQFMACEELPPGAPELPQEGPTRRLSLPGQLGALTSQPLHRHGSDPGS

[8] = system: Purinergic P2Y, Non-Selective; assay: Eurofins radioligand binding; conditions: Rat
Serotonin (5-HT2B) = Serotonin (5-HT2B) (Homo sapiens, UniProt P41595); assay: Eurofins radioligand binding
Chain of Serotonin (5-HT2B) (P41595 whole entry): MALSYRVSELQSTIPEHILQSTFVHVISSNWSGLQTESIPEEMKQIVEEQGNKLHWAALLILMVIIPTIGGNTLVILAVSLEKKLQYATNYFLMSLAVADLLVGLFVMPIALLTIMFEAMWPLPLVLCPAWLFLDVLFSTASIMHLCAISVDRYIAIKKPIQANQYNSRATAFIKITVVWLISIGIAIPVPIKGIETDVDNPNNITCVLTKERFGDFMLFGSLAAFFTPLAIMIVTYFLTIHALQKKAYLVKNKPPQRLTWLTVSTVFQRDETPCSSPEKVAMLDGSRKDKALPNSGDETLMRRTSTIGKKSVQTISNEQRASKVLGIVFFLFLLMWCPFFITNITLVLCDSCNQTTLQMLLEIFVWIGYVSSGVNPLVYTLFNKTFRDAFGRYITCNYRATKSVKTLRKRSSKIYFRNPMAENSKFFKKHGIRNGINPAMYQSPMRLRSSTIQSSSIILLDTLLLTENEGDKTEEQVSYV

Sigma σ1 = Sigma σ1 (Homo sapiens, UniProt Q99720); assay: Eurofins radioligand binding
Chain of Sigma σ1 (Q99720 whole entry): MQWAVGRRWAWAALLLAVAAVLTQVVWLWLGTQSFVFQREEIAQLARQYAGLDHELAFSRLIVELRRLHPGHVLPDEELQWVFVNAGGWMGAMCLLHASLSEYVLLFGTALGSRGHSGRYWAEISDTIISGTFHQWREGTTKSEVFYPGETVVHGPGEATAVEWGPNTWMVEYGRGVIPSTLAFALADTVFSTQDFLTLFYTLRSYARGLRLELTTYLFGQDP

[9] = target: Transporter, Norepinephrine (NET) (Homo sapiens, UniProt P23975); assay: Eurofins radioligand binding
[10] = cynomolgus monkey, plasma, 3 mg/kg po

Question: For `Cn1cc2c(-c3cc(F)c(CN4Cc5ncccc5C4=O)c(F)c3)ccc(C(C)(C)O)c2n1` [compound 7], which fraction unbound at 6 h, 1 μM [1] is on record?
Answer: The fraction unbound at 6 h, 1 μM was 0.027.

Question: What about the pIC50 (CYP 2B6) of the same compound?
Answer: The pIC50 was under 4.52.

Question: What about the pIC50 (CYP 2C8) of the same compound?
Answer: Its pIC50 is under 4.52.

Question: And the “F (%) po” value ([2]; 10 mg/kg po, 10 mg/kg)?
Answer: The value was over 100%.

Question: And the clearance ([2]; Sprague-Dawley, plasma, 1 mg/kg iv, read-out: CLp)?
Answer: Its clearance is 5.8 mL/min/kg.

Question: And the half-life ([2]; Sprague-Dawley, plasma, 1 mg/kg iv, read-out: Elimination t1/2 (converted))?
Answer: Its half-life is 3.7 h.

Question: What about the Vd ([2]; Sprague-Dawley, plasma, 1 mg/kg iv, read-out: Vss) of the same compound?
Answer: Its Vd is 1.3 L/kg.

Question: And the AUC ([2]; Sprague-Dawley, plasma, 10 mg/kg po)?
Answer: Its AUC is 110 µM·h.

Question: What about the Cmax ([2]; plasma, 10 mg/kg po) of the same compound?
Answer: Its Cmax is 15900 nM.

Question: And the Tmax ([2]; plasma, 10 mg/kg po)?
Answer: The Tmax was 1 h.

Question: And the “F (%) po” value ([3]; 3 mg/kg po)?
Answer: Its value is 65%.

Question: And the clearance ([3]; plasma, 1 mg/kg iv, read-out: CLp)?
Answer: The clearance was 8.4 mL/min/kg.

Question: What about the half-life ([3]; plasma, 1 mg/kg iv, read-out: Elimination t1/2 (converted)) of the same compound?
Answer: Its half-life is 4.1 h.

Question: What about the Vd ([3]; plasma, 1 mg/kg iv, read-out: Vss) of the same compound?
Answer: Its Vd is 2.3 L/kg.

Question: And the AUC ([3]; plasma, 3 mg/kg po)?
Answer: Its AUC is 9 µM·h.

Question: What about the Cmax ([3]; plasma, 3 mg/kg po) of the same compound?
Answer: The Cmax was 700 nM.

Question: What about the Tmax ([3]; plasma, 3 mg/kg po) of the same compound?
Answer: Its Tmax is 1.33 h.

Question: And the “F (%) po” value ([4]; 3 mg/kg po)?
Answer: The value was 76%.

Question: And the clearance ([4]; cynomolgus monkey, plasma, 1 mg/kg iv, read-out: CLp)?
Answer: The clearance was 7.3 mL/min/kg.

Question: And the half-life ([4]; cynomolgus monkey, plasma, 1 mg/kg iv, read-out: Elimination t1/2 (converted))?
Answer: Its half-life is 4.9 h.

Question: And the Vd ([4]; cynomolgus monkey, plasma, 1 mg/kg iv, read-out: Vss)?
Answer: The Vd was 1.5 L/kg.

Question: What about the AUC [4, 10] of the same compound?
Answer: Its AUC is 12.4 µM·h.

Question: And the Cmax [4, 10]?
Answer: Its Cmax is 1100 nM.

Question: And the Tmax [4, 10]?
Answer: Its Tmax is 4.7 h.

Question: What about the AMES assay result (4 strain) of the same compound?
Answer: Its AMES assay result is “negative”.

Question: What about the “contribution to metabolism, CYP450 phenotyping” value (3A4 [5]) of the same compound?
Answer: The value was 96.8%.

Question: And the 3A4 induction (3A4 [6]; 10 μM, human hepatocytes from three donors)?
Answer: The 3A4 induction was 7.6%.

Question: What about the 3A4 induction (3A4 [6]; 30 μM, mRNA as the reporter) of the same compound?
Answer: Its 3A4 induction is 30.5%.

Question: And the inhibition at 10 µM (Adrenergic α1A)?
Answer: The inhibition at 10 µM was 13%.

Question: And the pIC50 (Adrenergic α2A)?
Answer: The pIC50 was 5.49.

Question: What about the inhibition at 10 µM (Adrenergic α2A; Adrenergic α2A, Human) of the same compound?
Answer: Its inhibition at 10 µM is 75%.

Question: And the “% Inhibition at 10 µM” value [7]?
Answer: Its value is 80%.

Question: What about the inhibition at 10 µM (Estrogen ERα) of the same compound?
Answer: The inhibition at 10 µM was 12%.

Question: What about the inhibition at 10 µM (Opiate κ (OP2, KOP)) of the same compound?
Answer: The inhibition at 10 µM was 15%.

Question: What about the inhibition at 10 µM (Opiate μ (OP3, MOP)) of the same compound?
Answer: Its inhibition at 10 µM is 2%.

Question: And the “% Inhibition at 10 µM” value (Phorbol Ester)?
Answer: The value was 12%.

Question: What about the inhibition at 10 µM (hERG potassium channel) of the same compound?
Answer: Its inhibition at 10 µM is 2%.

Question: What about the “% Inhibition at 10 µM” value [8] of the same compound?
Answer: Its value is 21%.

Question: What about the inhibition at 10 µM (Serotonin (5-HT2B)) of the same compound?
Answer: Its inhibition at 10 µM is 20%.

Question: What about the inhibition at 10 µM (Sigma σ1) of the same compound?
Answer: Its inhibition at 10 µM is 6%.

Question: What about the inhibition at 10 µM [9] of the same compound?
Answer: Its inhibition at 10 µM is 1%.
